The conditions of series [1]: cited from earlier work.
For series [2], the system named is women with postpartum depression. To be noted: cited from earlier work.
Series [3] in a line: Ketamine levels in the breast milk of lactating women after intramuscular ketamine hydrochloride. Format: in vivo. To be noted: 0.5 and 1.0 mg/kg intramuscular. The method, then:
A study of the pharmacodynamics of ketamine in the breast milk of lactating women was performed. Ketamine levels in breast milk were quantified in lactating subjects over time. Four women were given intramuscular injections of ketamine hydrochloride at two doses: 0.5 mg/kg and 1.0 mg/kg at intervals of at least one week apart. Breast milk was collected in one subject at 3 hour intervals through 24 hours, and the succeeding three subjects at 3 hour intervals up to 12 hours. Subjects were of different weights and ethnic backgrounds.
Administered dosages of ketamine ranged from 28 mg to 76 mg. […] For subjects receiving the 0.5 mg/kg dose, the observed range for ketamine in the breast milk of the subject at the 9 to 12 hour collection period (total expression of milk during the period) ranged from 0.09 mg to 1.66 mg. For subjects receiving the 1.0 mg/kg dose, the observed range for ketamine in the breast milk of the subject at the 9 to 12 hour collection period (total expression of milk during the period) ranged from 1.067 mg to 6.22 mg. The highest ketamine level (6.22 mg) was observed following administration of a 76 mg dose of ketamine hydrochloride.

The conditions of series [4]: in vivo; cited from earlier work.

Each structure is given as a SMILES string.

Results on four molecules are retold here after patent publication US20220151955A1, “KETAMINE FOR THE TREATMENT OF […] AND DISORDERS” (The Ketamine Research Foundation, priority 2019, published 2022).

As for `CN[C@]1(c2ccccc2Cl)CCCCC1=O` [S-(+)-ketamine], in series [1] (for use in anesthesia), the “potency relative to R-(−)-ketamine” value is on record as “twice as potent as R-(−)-ketamine”.
Regarding `CC(=O)[C@H]1CC[C@H]2[C@@H]3CC[C@H]4C[C@H](O)CC[C@]4(C)[C@H]3CC[C@]12C` [brexanolone], in series [2] (within 60 hours, intravenous over 60 hours, two clinical trials of about 250 women, placebo 25 percent), the “women no longer clinically depressed” value is 50%. Further, in series [2] (women who received brexanolone), the “adverse effects experienced by some women” value is “excessive sedation and sudden loss of consciousness”.
Consider `CNC1(c2ccccc2Cl)CCCCC1=O` (centres unmarked) [ketamine], for which the “levels detectable in breast milk at 12 hours” value in series [3] was “only minimal levels”. In addition, the half-life entry in series [4] is “less than two and a half hours”.
Consider `NC1(c2ccccc2Cl)CCCCC1=O` (centres unmarked) [norketamine], for which the “levels detectable in breast milk at 12 hours” value in series [3] was “only minimal levels”. Besides, the “potency relative to ketamine (estimated)” value in series [1] (active metabolite, as stated in Example 1) is given as “one-third the potency of ketamine”. Further, in series [1] (for use in anesthesia), the “potency relative to ketamine” value is on record as “one third the potency of ketamine”.
